Source: article PMC6973011, “Stafia‐1: a STAT5a‐Selective Inhibitor Developed via Docking‐Based Screening of in Silico O‐Phosphorylated Fragments” (Chemistry (Weinheim an Der Bergstrasse, Germany), 2019)
Where a chain is given by its changes, count along the chain named.

What was measured:
[1] = target: T1, STAT5a (Homo sapiens, UniProt P42229); assay: Fluorescence polarization competitive binding assay, STAT5a
T1 construct: made in house
T1 sequence (P42229 1-794): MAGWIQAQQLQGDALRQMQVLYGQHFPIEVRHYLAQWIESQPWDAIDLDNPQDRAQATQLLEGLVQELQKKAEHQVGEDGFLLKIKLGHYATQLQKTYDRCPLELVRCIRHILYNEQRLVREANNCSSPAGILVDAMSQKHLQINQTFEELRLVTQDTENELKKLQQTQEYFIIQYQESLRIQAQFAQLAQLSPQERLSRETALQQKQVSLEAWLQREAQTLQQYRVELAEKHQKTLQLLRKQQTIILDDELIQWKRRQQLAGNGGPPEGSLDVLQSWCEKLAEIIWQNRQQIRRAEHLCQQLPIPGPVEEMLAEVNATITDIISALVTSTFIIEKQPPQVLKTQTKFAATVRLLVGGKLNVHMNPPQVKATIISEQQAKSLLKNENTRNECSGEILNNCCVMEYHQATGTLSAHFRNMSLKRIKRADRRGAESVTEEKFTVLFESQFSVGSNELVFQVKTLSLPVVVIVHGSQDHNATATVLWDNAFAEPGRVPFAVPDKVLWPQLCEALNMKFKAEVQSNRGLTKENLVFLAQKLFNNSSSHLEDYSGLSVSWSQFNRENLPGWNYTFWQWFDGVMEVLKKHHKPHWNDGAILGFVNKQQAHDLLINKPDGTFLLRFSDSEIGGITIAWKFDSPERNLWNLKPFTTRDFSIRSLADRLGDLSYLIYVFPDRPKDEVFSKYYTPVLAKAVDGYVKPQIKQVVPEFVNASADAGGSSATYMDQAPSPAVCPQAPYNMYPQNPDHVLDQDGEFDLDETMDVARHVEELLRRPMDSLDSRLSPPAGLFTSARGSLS

[2] = target: T2, STAT5b Gln636Pro/Met639Asn/Phe640Leu/Met644Lys/Asn664Ser/Tyr679Phe (STAT5b‐6M) (Homo sapiens, UniProt P51692, F640L/M639N/M644K/N664S/Q636P/Y679F); assay: Fluorescence polarization assay, mutant STAT5b-6M; format: binding
T2 construct: made in house
T2 sequence (P51692 1-787 Q636P/M639N/F640L/M644K/N664S/Y679F): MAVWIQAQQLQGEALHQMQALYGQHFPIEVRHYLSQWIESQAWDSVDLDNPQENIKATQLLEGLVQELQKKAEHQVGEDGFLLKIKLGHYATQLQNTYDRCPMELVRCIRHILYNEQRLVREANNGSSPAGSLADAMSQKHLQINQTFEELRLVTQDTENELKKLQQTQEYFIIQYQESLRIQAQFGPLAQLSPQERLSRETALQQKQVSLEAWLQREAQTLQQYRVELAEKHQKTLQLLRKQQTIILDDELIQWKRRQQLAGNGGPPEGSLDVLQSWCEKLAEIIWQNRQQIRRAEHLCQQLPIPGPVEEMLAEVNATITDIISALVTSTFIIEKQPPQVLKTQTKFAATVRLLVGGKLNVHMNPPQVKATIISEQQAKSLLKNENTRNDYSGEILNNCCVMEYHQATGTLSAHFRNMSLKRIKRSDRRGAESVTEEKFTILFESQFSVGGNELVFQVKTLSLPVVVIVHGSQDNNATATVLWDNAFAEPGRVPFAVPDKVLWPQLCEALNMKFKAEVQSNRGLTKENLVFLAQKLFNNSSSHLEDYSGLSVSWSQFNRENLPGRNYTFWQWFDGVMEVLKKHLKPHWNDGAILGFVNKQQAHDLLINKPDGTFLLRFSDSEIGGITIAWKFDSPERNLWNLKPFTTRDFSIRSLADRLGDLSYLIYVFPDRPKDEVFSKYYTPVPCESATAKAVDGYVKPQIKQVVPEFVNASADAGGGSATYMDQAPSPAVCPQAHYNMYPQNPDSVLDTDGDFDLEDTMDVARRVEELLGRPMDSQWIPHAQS

[3] = target: T3, STAT5a Trp566Arg (Homo sapiens, UniProt P42229, W566R); assay: Fluorescence polarization assay, point mutant STAT5a Trp566Arg; format: binding
T3 construct: made in house
T3 sequence (P42229 1-794 W566R): T1 sequence (P42229 1-794) with W566R

[4] = FP assay, double-purified protein

COc1cc(-c2cc(OP(=O)(O)O)cc(-c3cc(OC)c(OC)c(OC)c3)c2)cc(OC)c1OC [Compound 20]
IC50 [1]: 22.2 ± 3.6 µM
Ki [1]: 10.9 ± 1.8 µM
selectivity for STAT5a over STAT5b ([1]; FP assays, STAT5a vs STAT5b): at least 9 fold
inhibition at 200 µM ([2]; FP assay, 200 µM): 46 ± 8%
activity against STAT5b-6M lower than activity against wild-type STAT5a ([2]; FP assays): approximately 10 fold
IC50 [3, 4]: 155 ± 15 µM
Ki [3, 4]: 74 ± 7 µM
reduction of activity against STAT5a Trp566Arg as compared to wild-type STAT5a ([3]; FP assays): 7 fold
